# Tests used:
# [1] = Comparison of edible acids as bleaching agents for removal of stains in enamel; settings: low pH (<2.5), intact enamel
# Method: The ability of an aqueous acidic solution to deconstruct and dissolve both organic and inorganic components depends on the period of time, pH, concentration, and temperature at which the process occurs. The color of the enamel after stain removal and bleaching is determined by how closely the structure after etching matches the natural structure and how well light is scattered from the surface of the tooth. Remineralization is however, a slow process, so caution in carrying out the procedure is recommended, and it is desirable to protect the new surface with a hard material. To achieve this, the present invention proposes the use of a high concentration of acid to minimize the time of treatment. For a high concentration of acid to be used safely within the oral cavity, two fundamental safety concerns need to be addressed: firstly toxicity and secondly soft tissue damage. To completely eliminate the toxicity problem, especially for home use, we propose the use of an edible acid which is non-toxic when ingested. The volume of acid for any application in the present invention is limited to several cubic centimeters. After dissolution in saliva the concentration of the acid ingested will drop, and the pH will increase, which is typical for foodstuffs. A typical pH for food acids is 2.5 or more. We have studied the effect of a low pH (<2.5) edible acid on intact enamel. […]
# [2] = Example 3: thermal treatment of etched enamel impregnated by sapphire particles (CO2 laser), in vitro; set-up: species or system human; settings: pH=1.5, approximately +50° C., approximately 10 minutes
# Method: The authors produced a durable, white colored coating on the enamel surface in an in-vitro experiment as described below. The experiment was conducted on freshly extracted teeth from subjects in the 25-40 age group. The teeth were extracted for periodontal reasons. All specimens had healthy, intact enamel. Prior to the experiment, the specimen were stored for no longer than two weeks in a physiological solution, in a dark place at a temperature of approximately +4° C.
# One half of the crown of the tooth was coated with varnish. […] The tooth was exposed to the acid for a period of approximately 10 minutes, which was sufficient for the formation of a porous layer of enamel, approximately 50 μm in thickness on unprotected side of the specimen. […]
# Thermocycling test was performed after described treatment The tooth was placed into two alternate water baths, one at +25° C. and the other at +90° C., for a period of 2 seconds into each bath, for a total immersion of 100 cycles. The hardness of the treated and untreated sides was assessed, before and after thermocycling, using a dental probe. The strength of the adhesion of the newly formed layer with sapphire particles to the underlying enamel was also assessed using the tip of the dental probe in an attempt to dislodge the newly formed layer at the border.
# [3] = test system: maxillary right central incisor of a volunteer; experiment: Example 2: at-home tooth whitening treatment; settings: for Normalized optical coefficient of reflection: before treatment 1
# [4] = test system: premolar teeth of a subject; experiment: Example 1: in-office tooth whitening treatment
# [5] = test system: gingival tissue; experiment: Safe treatment time (STT): onset of discomfort on subjects' gingival tissue; type: in vivo, human; set-up: key to effect of discomfort on gingival tissue: “−” means that the subject experienced no discomfort; “+” means that some discomfort was reported
# Method: It was discovered, that a high concentration and low pH acid can work well for exposure times long enough to produce significant changes to hard tissue. The use of high concentration, edible acids for treatment of hard tissues is limited by the action of such acids on soft tissues. […] The typical application time for the desired depth of etching can be from 1-5 minutes for home use, and up for up to 10-20 minutes for professional use. The safe treatment time (STT) is defined as the time during which acid can interact with the soft tissues without damaging them. The STT depends on the acid concentration and the temperature, i.e. STT (pH,T), where pH is the pH of the acid, and T is the temperature of the acid. […] The experiment was conducted on subjects with healthy oral tissues. Prior to treatment, the acid was heated to a control temperature T, using a thermostat, and a small volume (approximately 5×10^−3 ml) of acid was applied to an area of the subject's gingival tissue. The thermo-relaxation time of such a volume is approximately 5-10 seconds. To provide for a relatively constant temperature on the tissue surface, the acid was reapplied at the same temperature T to the same area every 5-10 seconds. This procedure was repeated until the subject reported discomfort. A feeling of discomfort always precedes tissue damage. Therefore, the time of the onset of discomfort can be used as an estimate of the STT with a certain safety margin.
smiles,measurement,setting,value
O=C(O)CC(O)(CC(=O)O)C(=O)O [citric acid],"effectiveness among edible acids (lactic, malic, tartaric, oxalic acid)",[1],most effective
same,thickness of porous layer of enamel formed,[2],approximately 50 μm
same,Normalized optical coefficient of reflection,[3]; 1 months after treatment,1.3 a.u.
same,Normalized optical coefficient of reflection,[3]; 4 months after treatment,1.15 a.u.
same,Normalized optical coefficient of reflection,"[3]; after 3 weeks of daily treatment (pH=1.5, room temperature, 2 minutes)",1.34 a.u.
same,change in enamel gloss and reflection,[3]; after three-week treatment,No visible change in enamel gloss and reflection
same,improvement in tooth whitening (coefficient of reflection for white light) versus original color,[3]; after three-week treatment,35%
same,dentinal hypersensitivity and change in gingival tissue,[3]; after treatment or during review appointments,No dentinal hypersensitivity
same,pain or discomfort throughout treatment,[3]; daily 2 minutes for three weeks,did not report any pain or discomfort
same,detrimental changes in soft tissues or enamel (post-treatment caries),[3]; four month review visit,no detrimental changes
same,improvement compared with original coefficient of reflection,[3]; four months after treatment,approximately 15%
same,whitening effect exceeding the original,[3]; one month after treatment,33%
same,change in gingival tissue and hypersensitivity,[4]; after treatment or during follow up appointments,No change in gingival tissue and no hypersensitivity
same,gloss of treatment side versus control side,[4]; immediately after treatment,less glossy than the control side
same,pain or discomfort throughout the treatment,"[4]; pH=1.5, average +50° C., 10 minutes",did not report any pain or discomfort
same,safe treatment time (STT),"[5]; 50° C., pH of 1.5",greater than 8 minutes
same,damage to soft tissues,[5]; high concentrations and high temperatures (up to 90° C.),did not cause damage to soft tissues
same,effect of discomfort on gingival tissue,"[5]; pH=1.5, T +20 °C, t 1 min",−
same,effect of discomfort on gingival tissue,"[5]; pH=1.5, T +20 °C, t 2 min",−
same,effect of discomfort on gingival tissue,"[5]; pH=1.5, T +20 °C, t 3 min",−
same,effect of discomfort on gingival tissue,"[5]; pH=1.5, T +20 °C, t 4 min",−
same,effect of discomfort on gingival tissue,"[5]; pH=1.5, T +20 °C, t 5 min",−
same,effect of discomfort on gingival tissue,"[5]; pH=1.5, T +20 °C, t 6 min",−
same,effect of discomfort on gingival tissue,"[5]; pH=1.5, T +20 °C, t 7 min",−
same,effect of discomfort on gingival tissue,"[5]; pH=1.5, T +20 °C, t 8 min",−
same,effect of discomfort on gingival tissue,"[5]; pH=1.5, T +20 °C, t 9 min",−
same,effect of discomfort on gingival tissue,"[5]; pH=1.5, T +20 °C, t 10 min",−
same,effect of discomfort on gingival tissue,"[5]; pH=1.5, T +20 °C, t 11 min",−
same,effect of discomfort on gingival tissue,"[5]; pH=1.5, T +20 °C, t 12 min",+
same,effect of discomfort on gingival tissue,"[5]; pH=1.5, T +36 °C, t 1 min",−
same,effect of discomfort on gingival tissue,"[5]; pH=1.5, T +36 °C, t 2 min",−
same,effect of discomfort on gingival tissue,"[5]; pH=1.5, T +36 °C, t 3 min",−
same,effect of discomfort on gingival tissue,"[5]; pH=1.5, T +36 °C, t 4 min",−
same,effect of discomfort on gingival tissue,"[5]; pH=1.5, T +36 °C, t 5 min",−
same,effect of discomfort on gingival tissue,"[5]; pH=1.5, T +36 °C, t 6 min",−
same,effect of discomfort on gingival tissue,"[5]; pH=1.5, T +36 °C, t 7 min",−
same,effect of discomfort on gingival tissue,"[5]; pH=1.5, T +36 °C, t 8 min",−
same,effect of discomfort on gingival tissue,"[5]; pH=1.5, T +36 °C, t 9 min",−
same,effect of discomfort on gingival tissue,"[5]; pH=1.5, T +36 °C, t 10 min",+
same,effect of discomfort on gingival tissue,"[5]; pH=1.5, T +50 °C, t 1 min",−
same,effect of discomfort on gingival tissue,"[5]; pH=1.5, T +50 °C, t 2 min",−
same,effect of discomfort on gingival tissue,"[5]; pH=1.5, T +50 °C, t 3 min",−
same,effect of discomfort on gingival tissue,"[5]; pH=1.5, T +50 °C, t 4 min",−
same,effect of discomfort on gingival tissue,"[5]; pH=1.5, T +50 °C, t 5 min",−
same,effect of discomfort on gingival tissue,"[5]; pH=1.5, T +50 °C, t 6 min",−
same,effect of discomfort on gingival tissue,"[5]; pH=1.5, T +50 °C, t 7 min",−
same,effect of discomfort on gingival tissue,"[5]; pH=1.5, T +50 °C, t 8 min",+
same,effect of discomfort on gingival tissue,"[5]; pH=1.5, T +70 °C, t 1 min",−
same,effect of discomfort on gingival tissue,"[5]; pH=1.5, T +70 °C, t 2 min",−
same,effect of discomfort on gingival tissue,"[5]; pH=1.5, T +70 °C, t 3 min",−
same,effect of discomfort on gingival tissue,"[5]; pH=1.5, T +70 °C, t 4 min",−
same,effect of discomfort on gingival tissue,"[5]; pH=1.5, T +70 °C, t 5 min",−
same,effect of discomfort on gingival tissue,"[5]; pH=1.5, T +70 °C, t 6 min",+
same,effect of discomfort on gingival tissue,"[5]; pH=1.5, T +90 °C, t 1 min",−
same,effect of discomfort on gingival tissue,"[5]; pH=1.5, T +90 °C, t 2 min",−
same,effect of discomfort on gingival tissue,"[5]; pH=1.5, T +90 °C, t 3 min",+

# Reference: US7985072B2, “Method and apparatus for tooth rejuvenation and hard tissue modification” (Rejuvedent LLC, priority 2005, dated 2011)
